System: T1, lactose oxidase (LOD)
T1 construct: native enzyme purified from wheat bran solid culture; 2 Zn per mole, no FAD or heme
Assay: peroxidase-4-aminoantipyrine assay, Hanes-Woolf plot
Type: biochemical, Myrmecridium flexuosum
Details: 50 mM Tris-HCl pH 7.8, 30 °C, O2 as acceptor
From the text: peroxidase-4-aminoantipyrine assay, Hanes-Woolf plot on lactose oxidase (LOD)

[1] = substrate inhibition above 1 mM

Structure (SMILES) | Km [1] | Km
OC[C@H]1O[C@@H](O[C@H]2[C@H](O)[C@@H](O)C(O)O[C@@H]2CO)[C@H](O)[C@@H](O)[C@@H]1O (stereo partly drawn) [Cellobiose] | 63 µM | 
OC[C@H]1O[C@@H](O[C@H]2[C@H](O)[C@@H](O)C(O)O[C@@H]2CO)[C@H](O)[C@@H](O)[C@H]1O (stereo partly drawn) [Lactose] | 76 µM | 
OC[C@H]1O[C@H](O[C@H]2[C@H](O)[C@@H](O)C(O)O[C@@H]2CO)[C@H](O)[C@@H](O)[C@@H]1O (stereo partly drawn) [Maltose] |  | 22000 µM

Reference: PMC6356164, “Identification of a novel lactose oxidase in Myrmecridium flexuosum NUK‐21” (FEBS Open Bio, 2019)
